# Patent publication US7871999B2, “Substituted thiazoles and their use for producing drugs” (Gruenenthal GmbH, priority 2005, dated 2011)
# Where a name gives a salt, the structure may show the parent alone.
# Target: T1, mGluR5 receptor (Sus scrofa, UniProt I3LUI7)
# T1 construct: pig brain hemispheres without medulla, cerebellum and pons ... differential centrifugation at 900×g and 40,000×g
# Assay: Inhibition of [^3H]-MPEP binding in the mGluR5 receptor binding assay (pig brain homogenate)
# Details: 5 nM [^3H]-MPEP
# Method: I. Method for Determining the Inhibition of [^3H]-MPEP Binding in the mGluR5 Receptor Binding Assay […]
# The batches are then filtered with the assistance of a Brandel Cell Harvester (Brandel, Robotic 9600 model) on Unifilter plates with glass filter mats (Perkin Elmer, order number 6005177) and then washed 3 times with buffer (as above) using 250 μl per sample. The filter plates are then dried for 60 min at 55° C. Then 30 μl of Ultima Gold™ scintillating material (Packard BioScience, order number 6013159) is added per well and after 3 hours the samples are measured using the β counter (Microbeta, Perkin Elmer). Nonspecific binding is determined by the addition of 10 μM MPEP (Tocris, order number 1212).
# T1 sequence (I3LUI7 1-1212): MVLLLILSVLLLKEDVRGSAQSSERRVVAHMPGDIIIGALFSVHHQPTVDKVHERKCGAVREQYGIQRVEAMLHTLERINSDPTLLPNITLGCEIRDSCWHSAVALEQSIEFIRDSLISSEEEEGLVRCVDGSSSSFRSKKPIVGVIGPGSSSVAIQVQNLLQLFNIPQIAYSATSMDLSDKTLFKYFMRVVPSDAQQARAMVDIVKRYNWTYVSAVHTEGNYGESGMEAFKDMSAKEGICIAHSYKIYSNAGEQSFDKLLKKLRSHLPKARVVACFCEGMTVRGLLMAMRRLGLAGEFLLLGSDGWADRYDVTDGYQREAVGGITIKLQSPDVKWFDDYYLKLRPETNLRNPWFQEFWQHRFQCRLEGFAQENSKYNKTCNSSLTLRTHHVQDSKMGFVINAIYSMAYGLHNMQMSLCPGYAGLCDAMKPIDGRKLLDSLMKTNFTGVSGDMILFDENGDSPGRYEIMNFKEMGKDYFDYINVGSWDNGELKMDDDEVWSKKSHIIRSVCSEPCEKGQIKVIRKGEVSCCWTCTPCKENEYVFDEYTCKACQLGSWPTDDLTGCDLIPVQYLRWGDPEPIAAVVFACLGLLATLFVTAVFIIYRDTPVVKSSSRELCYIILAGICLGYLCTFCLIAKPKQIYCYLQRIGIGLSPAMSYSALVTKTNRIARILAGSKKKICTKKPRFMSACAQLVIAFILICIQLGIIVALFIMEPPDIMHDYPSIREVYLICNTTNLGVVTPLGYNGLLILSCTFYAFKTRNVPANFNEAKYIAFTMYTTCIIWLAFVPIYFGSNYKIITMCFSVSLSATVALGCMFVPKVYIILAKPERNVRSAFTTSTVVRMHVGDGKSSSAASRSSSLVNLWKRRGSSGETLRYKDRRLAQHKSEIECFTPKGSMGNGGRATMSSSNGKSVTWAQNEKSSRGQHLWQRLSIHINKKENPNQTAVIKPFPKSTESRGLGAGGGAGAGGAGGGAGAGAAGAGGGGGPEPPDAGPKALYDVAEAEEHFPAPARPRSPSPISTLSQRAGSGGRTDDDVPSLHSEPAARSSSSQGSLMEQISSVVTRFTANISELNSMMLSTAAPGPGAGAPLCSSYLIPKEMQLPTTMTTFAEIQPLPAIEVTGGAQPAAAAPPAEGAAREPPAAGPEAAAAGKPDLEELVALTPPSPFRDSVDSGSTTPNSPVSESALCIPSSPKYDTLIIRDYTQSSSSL
row,Structure (SMILES),IC50 [nM]
1,"Cc1cccc(C#CC(=O)NCCN(C)c2nccs2)c1 [Example 21, N-(2-(methyl(thiazol-2-yl)amino)ethyl)-3-(tol-3-yl)-propiolamide]",8.3
2,"CN(C(=O)C#Cc1ccccc1)C1CCN(c2nccs2)C1 (centres unmarked) [Example 2, N-methyl-3-phenyl-N-(1-(thiazol-2-yl)pyrrolidin-3-yl)propiolamide hydrochloride]",1320
3,"CCOC(=O)c1cnc(N(C)CCNC(=O)C#Cc2cccc(Cl)c2)s1 [Example 25, N-(2-(methyl-(5-ethoxycarbonylthiazol-2-yl)amino)ethyl)-3-(3-chlorophenyl)-propiolamide]",150
4,"CN(CCN(C)c1nccs1)C(=O)C#Cc1ccccn1 [Example 17, N-Methyl-N-(2-(methyl(thiazol-2-yl)amino)ethyl)-3-(pyrid-2-yl)-propiolamide]",1250
5,"Cc1cnc(N(C)CCNC(=O)C#Cc2cccc(Cl)c2)s1 [Example 30, 3-(3-Chlorophenyl)-N-(2-(methyl(5-methylthiazol-2-yl)amino)ethyl)propiolamide]",77
6,"CN(c1nccs1)C1CCCN(C(=O)C#Cc2ccccc2)C1 (centres unmarked) [Example 28, 3-(methyl-(thiazol-2-yl)-amino)-1-(3-phenylpropioloyl)piperidine]",1150
7,"CN(CCNC(=O)C#Cc1cccc(Cl)c1)c1ncc(F)s1 [Example 126, 3-(3-Chlorophenyl)-N-(2-((5-fluorothiazol-2-yl)(methyl)amino)ethyl)propiolamide]",16
8,"Cc1csc(N(C)CCNC(=O)C#Cc2cccc(Cl)c2)n1 [Example 29, N-(2-(methyl-(4-methylthiazol-2-yl)amino)ethyl)-3-(3-chlorophenyl)-propiolamide]",27
9,"O=C(C#Cc1ccccc1)NC1CN(c2nccs2)C1 [Example 8, 3-Phenyl-N-(1-(thiazol-2-yl)azetidin-3-yl)propiolamide]",10200
10,"CN(c1nccs1)C1CCN(C(=O)C#Cc2ccccc2)C1 (centres unmarked) [Example 22, 3-(Methyl(thiazol-2-yl)amino)-1-(3-phenylpropioloyl)pyrrolidine]",350
11,"O=C(C#Cc1cccc(Cl)c1)NC1CN(c2nccs2)C1 [Example 39, 3-(3-chlorophenyl)-N-(1-(thiazol-2-yl)azetidin-3-yl)-propiolamide]",390
12,"CN(CCNC(=O)C#Cc1cccc(Cl)c1)c1nc(Cl)cs1 [Example 37, 3-(3-chlorophenyl)-N-(2-((4-chlorothiazol-2-yl)(methyl)amino)ethyl)propiolamide]",9.5
13,"CN(c1ncc(F)s1)C1CN(C(=O)C#Cc2cccc(Cl)c2)C1 [Example 43, 1-(3-(3-Chlorophenyl)propioloyl)-3-(methyl(5-fluorothiazol-2-yl)amino)azetidine]",74
14,"CN(CCNc1nccs1)C(=O)C#Cc1ccccc1 [Example 10, N-methyl-N-(2-(thiazol-2-yl)amino)ethyl-3-phenylpropiolamide]",1860
15,"COC(=O)c1cnc(N(C)CCNC(=O)C#Cc2cccc(Cl)c2)s1 [Example 34, methyl 2-((2-(3-(3-chlorophenyl)-propiolamido)ethyl)(methyl)amino)thiazole-5-carboxylate]",20
16,"CN(c1ncc(F)s1)C1CCN(C(=O)C#Cc2cccc(Cl)c2)C1 (centres unmarked) [Example 44, 1-(3-(3-Chlorophenyl)propioloyl)-3-(methyl(5-fluorothiazol-2-yl)amino)pyrrolidine]",71
17,"CN(C(=O)C#Cc1ccccc1)C1CCCN(c2nccs2)C1 (centres unmarked) [Example 16, N-methyl-N-(1-(thiazol-2-yl)piperidin-3-yl)-3-phenylpropiolamide]",140
18,"CN(C(=O)C#Cc1cccc(Cl)c1)C1CCCN(c2nccs2)C1 (centres unmarked) [Example 36, 3-(3-Chlorophenyl)-N-methyl-N-(1-(thiazol-2-yl)piperidin-3-yl)propiolamide]",22
19,"CCN(CCNC(=O)C#Cc1cccc(Cl)c1)c1nccs1 [Example 41, 3-(3-Chlorophenyl)-N-(2-(ethyl(thiazol-2-yl)amino)ethyl)propiolamide]",4.1

# Same assay, conditions: 1 μM test compound, 5 nM [^3H]-MPEP
row,Structure (SMILES),inhibition at 1 µM [%]
1,"CC(C)(C)c1csc(N2CCC(NC(=O)C#Cc3ccc(F)cc3)C2)n1 (centres unmarked) [Example 57, N-(1-(4-tert.-butylthiazol-2-yl)pyrrolidin-3-yl)-3-(4-fluorophenyl)propiolamide]",26
2,"Cc1cnc(N2CCC(NC(=O)C#Cc3ccccc3)C2)s1 (centres unmarked) [Example 76, N-(1-(5-methylthiazol-2-yl)pyrrolidin-3-yl)-3-phenylpropiolamide]",56
3,"CC(C)(C)c1csc(N2CCC(NC(=O)C#Cc3ccccc3F)C2)n1 (centres unmarked) [Example 61, N-(1-(4-tert.-butylthiazol-2-yl)pyrrolidin-3-yl)-3-(2-fluorophenyl)propiolamide]",28
4,"CC(C)(C)c1csc(N2CCC(NC(=O)C#Cc3ccccc3)C2)n1 (centres unmarked) [Example 60, N-(1-(4-tert.-butylthiazol-2-yl)pyrrolidin-3-yl)-3-phenylpropiolamide]",30
5,"Cc1cccc(C#CC(=O)NC2CCN(c3ncc(C)s3)C2)c1 (centres unmarked) [Example 74, N-(1-(5-methylthiazol-2-yl)pyrrolidin-3-yl)-3-m-tolylpropiolamide]",89
6,"COc1cccc(C#CC(=O)NC2CCN(c3nc(C)c(C)s3)C2)c1 (centres unmarked) [Example 90, N-(1-(4,5-dimethylthiazol-2-yl)pyrrolidin-3-yl)-3-(3-methoxyphenyl)propiolamide]",34
7,"Cc1nc(N2CCC(NC(=O)C#Cc3cccc(C(F)(F)F)c3)C2)sc1C (centres unmarked) [Example 85, N-(1-(4,5-dimethylthiazol-2-yl)pyrrolidin-3-yl)-3-(3-(trifluoromethyl)phenyl)-propiolamide]",41
8,"Cc1csc(N2CCC(NC(=O)C#Cc3ccccc3F)C2)n1 (centres unmarked) [Example 70, 3-(2-fluorophenyl)-N-(1-(4-methylthiazol-2-yl)pyrrolidin-3-yl)propiolamide]",50
9,"Cc1cnc(N2CCC(NC(=O)C#Cc3cccc(Cl)c3)C2)s1 (centres unmarked) [Example 112, 3-(3-chlorophenyl)-N-(1-(5-methylthiazol-2-yl)pyrrolidin-3-yl)propiolamide]",24
10,"Cc1cnc(N2CCC(NC(=O)C#Cc3cccc(C(F)(F)F)c3)C2)s1 (centres unmarked) [Example 87, N-(1-(5-methylthiazol-2-yl)pyrrolidin-3-yl)-3-(3-(trifluoromethyl)phenyl)-propiolamide]",23
11,"Cc1csc(N2CCC(NC(=O)C#Cc3cccc(C(F)(F)F)c3)C2)n1 (centres unmarked) [Example 71, N-(1-(4-methylthiazol-2-yl)pyrrolidin-3-yl)-3-(3-(trifluoromethyl)phenyl)-propiolamide]",59
12,"Cc1nc(N2CCC(NC(=O)C#Cc3ccccc3)C2)sc1C (centres unmarked) [Example 51, N-(1-(4,5-dimethylthiazol-2-yl)pyrrolidin-3-yl)-3-phenylpropiolamide]",48
13,"Cc1cnc(N2CCC(NC(=O)C#Cc3cccc(F)c3)C2)s1 (centres unmarked) [Example 81, 3-(3-fluorophenyl)-N-(1-(5-methylthiazol-2-yl)pyrrolidin-3-yl)propiolamide]",57
14,"COc1cccc(C#CC(=O)NC2CCN(c3ncc(C)s3)C2)c1 (centres unmarked) [Example 78, 3-(3-methoxyphenyl)-N-(1-(5-methylthiazol-2-yl)pyrrolidin-3-yl)propiolamide]",26
15,"Cc1csc(N2CCC(NC(=O)C#Cc3cccc(F)c3)C2)n1 (centres unmarked) [Example 67, 3-(3-fluorophenyl)-N-(1-(4-methylthiazol-2-yl)pyrrolidin-3-yl)propiolamide]",76
16,"Cc1csc(N2CCC(NC(=O)C#Cc3ccccc3)C2)n1 (centres unmarked) [Example 45, N-(1-(4-methylthiazol-2-yl)pyrrolidin-3-yl)-3-phenylpropiolamide]",59
17,"Cc1cccc(C#CC(=O)NC2CCN(c3nc(C)cs3)C2)c1 (centres unmarked) [Example 72, N-(1-(4-methylthiazol-2-yl)pyrrolidin-3-yl)-3-m-tolylpropiolamide]",87
18,"Cc1ccc(C#CC(=O)NC2CCN(c3nc(C(C)(C)C)cs3)C2)cc1 (centres unmarked) [Example 56, N-(1-(4-tert.-butylthiazol-2-yl)pyrrolidin-3-yl)-3-p-tolylpropiolamide]",37
19,"COc1cccc(C#CC(=O)NC2CCN(c3nc(C)cs3)C2)c1 (centres unmarked) [Example 46, 3-(3-methoxyphenyl)-N-(1-(4-methylthiazol-2-yl)pyrrolidin-3-yl)propiolamide]",48

# Same assay, conditions: 10 μM test compound, 5 nM [^3H]-MPEP
row,Structure (SMILES),inhibition at 10 µM [%]
1,"O=C(C#Cc1ccccc1)NC1CCN(c2nccs2)C1 (centres unmarked) [Example 1, 3-Phenyl-N-(1-(thiazol-2-yl)pyrrolidin-3-yl)propiolamide]",66
2,"Cc1nc(N2CCC(NC(=O)C#Cc3cccc(Cl)c3)C2)sc1C (centres unmarked) [Example 110, 3-(3-chlorophenyl)-N-(1-(4,5-dimethylthiazol-2-yl)pyrrolidin-3-yl)propiolamide]",63
3,"Cc1csc(N2CCC(NC(=O)C#Cc3cccs3)C2)n1 (centres unmarked) [Example 106, N-(1-(4-methylthiazol-2-yl)pyrrolidin-3-yl)-3-(thiophen-2-yl)propiolamide]",38
4,"O=C(C#Cc1ccccc1)N1CCCC(Nc2nccs2)C1 (centres unmarked) [Example 27, 3-(thiazol-2-yl-amino)-1-(3-phenylpropioloyl)piperidine]",19
5,"CN(C(=O)C#Cc1ccccc1)C1CCCCC1N(C)c1nccs1 (centres unmarked) [Example 12, N-Methyl-N-(2-(methyl(thiazol-2-yl)amino)cyclohexyl)-3-phenylpropiolamide]",41
6,"Cc1cnc(N2CCC(NC(=O)C#Cc3cccs3)C2)s1 (centres unmarked) [Example 113, N-(1-(5-methylthiazol-2-yl)pyrrolidin-3-yl)-3-(thiophen-2-yl)propiolamide]",22
